Reference: ChEMBL document CHEMBL1177749, “Tetracyclic chromane derivatives from Rhododendron anthopogonoides” (J Nat Prod, 2010)

Tested on: Mast cell
Assay: Inhibition of compound 48/80-induced histamine release in Wister rat Peritoneal mast cells
Assay type: functional, cell-based

IC50 [µM]	SMILES
63	C/C(=C\CC[C@@]1(C)C=Cc2c(cc(C)c(C(=O)O)c2O)O1)CC(=O)CC(C)C [ANTHOPOGOCHROMENE A]
250	COc1ccc2c(c1)c(CC(=O)O)c(C)n2C(=O)c1ccc(Cl)cc1 [INDOMETHACIN]

SMILES	IC50 [µM]
Cc1cc2c(c(O)c1C(=O)O)[C@H]1[C@@H]3[C@@](C)(CCC[C@]3(C)O2)[C@H]1C(=O)CC(C)C [ANTHOPOGOCHROMANE]	114
